The values that follow come from ChEMBL document CHEMBL1147033, “Novel selective androgen receptor modulators: SAR studies on 6-bisalkylamino-2-quinolinones” (Bioorg Med Chem Lett, 2007).

Test [1] has as its target T1, Androgen receptor (Homo sapiens, UniProt P10275).
T1 sequence (P10275 whole entry): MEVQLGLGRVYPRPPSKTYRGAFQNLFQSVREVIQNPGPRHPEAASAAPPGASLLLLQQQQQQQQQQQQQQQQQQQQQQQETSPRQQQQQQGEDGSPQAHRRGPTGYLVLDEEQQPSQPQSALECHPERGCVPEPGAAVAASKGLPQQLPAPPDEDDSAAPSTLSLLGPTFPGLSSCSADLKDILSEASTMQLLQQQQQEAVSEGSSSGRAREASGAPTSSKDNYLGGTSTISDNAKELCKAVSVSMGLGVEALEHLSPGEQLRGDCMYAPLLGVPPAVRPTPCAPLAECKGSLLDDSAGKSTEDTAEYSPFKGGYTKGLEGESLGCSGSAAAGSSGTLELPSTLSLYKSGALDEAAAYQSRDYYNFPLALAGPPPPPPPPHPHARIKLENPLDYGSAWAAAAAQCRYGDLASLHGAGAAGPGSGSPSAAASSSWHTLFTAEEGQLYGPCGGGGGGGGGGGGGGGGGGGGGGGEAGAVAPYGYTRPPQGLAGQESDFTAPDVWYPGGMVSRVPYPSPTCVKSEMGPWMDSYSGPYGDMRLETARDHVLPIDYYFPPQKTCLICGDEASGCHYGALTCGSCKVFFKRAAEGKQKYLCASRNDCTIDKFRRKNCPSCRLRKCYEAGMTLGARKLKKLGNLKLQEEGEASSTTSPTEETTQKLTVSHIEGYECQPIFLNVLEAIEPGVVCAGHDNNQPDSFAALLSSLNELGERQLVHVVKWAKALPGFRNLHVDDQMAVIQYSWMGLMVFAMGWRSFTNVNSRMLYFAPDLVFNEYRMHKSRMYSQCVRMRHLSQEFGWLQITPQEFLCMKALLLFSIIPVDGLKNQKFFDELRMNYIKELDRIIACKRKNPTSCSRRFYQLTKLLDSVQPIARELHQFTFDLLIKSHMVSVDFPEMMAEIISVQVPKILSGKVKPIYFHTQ
Description: Antagonist activity at human AR

Test [2] concerns the target T1, Androgen receptor. This is another data set of the same source.
Description: Agonist activity at human AR
Test [3] addresses T1, Androgen receptor. This is another data set of the same source.
Description: Binding affinity to human AR

pEC50, pIC50, pKi: −log10 of the molar value. Bounds are passed on as bounds.

For orientation: pIC50 means the IC50 on a negative log10 scale, so that one unit is a factor of ten. Low readings indicate a large IC50, high ones a small IC50. As usually defined, the pEC50 is −log10 of the EC50, conventionally taken in molar units. The low end stands for a high EC50, the high end for a low EC50. As usually defined, the pKi is −log10 of the Ki, conventionally taken in molar units. A high value points to a small Ki. `O=c1cc(C(F)(F)F)c2cc(N(Cc3ccccc3)CC(F)(F)F)ccc2[nH]1` gave a pIC50 on Androgen receptor [1] of under 5.00. The same compound gave a negative logarithm of the EC50 (pEC50) at Androgen receptor [2] of 7.57. At Androgen receptor [3], this compound showed a negative logarithm of the Ki (pKi) of 7.10.
